Experiments:
Format in all cases: cell-based
PC-3 = assay: Wound healing assay in 2D monolayer culture (IncuCyte); conditions: example for inactive derivatives
Description: Cells were cultured on ImageLock plates (Essen Bioscience, Ann Arbor, MI, USA) until fully confluent and scratched with a WoundMaker instrument (Essen Bioscience). All detached cells were removed by aspiration and medium supplemented with experimental compounds was added. Wound closure was monitored and quantified with the IncuCyte live-cell imager (Essen Bioscience).
A) Graph showing the transition of PC-3 spheroids from symmetrical acini to irregular invasive structures over 6 days, as measured by general symmetry (roundness %). […] B) Conventional wound healing assay performed in monolayer culture over a period of 64 hours. Wound closure is measured as relative wound density i.e. percentage of original wound area reclaimed by migrating cells. […] (EPS) Click here for additional data file.

LAPC-4 = assay: Secondary 3D screen (spheroid size, complexity, cell death); conditions: yellow and red clusters
Description: Next, the 25 selected betulin derivatives depicted in Figs 1–3 including control compounds were again thoroughly tested across the same panel of prostate-derived cell lines already used in the preliminary, 2D high-throughput screen. The resulting dendrograms were either generated separately for each cell line (S4 Fig), combined into a single dendrogram (Fig 5A), or shown as reduced organoid sizes (area; Fig 5B).
Fig 5 Secondary 3D screens. Experimental betulin derivatives and control compounds were tested across a panel of prostate cancer lines (LNCaP, LAPC-4) and non-transformed, prostate epithelial cells (EP156T) in 3D culture. A) The dendrogram is based on three main morphological parameters and combines all data from primary and secondary 3D screens. […] B) Boxplots showing the impact of selected compounds on spheroid size (Area). Data scaling: as described in Fig 4 C) Effects of all betulin derivatives and control compounds on cell death (number of dead cells).
All 3D cultures were done in growth factor-free Matrigel Basement-membrane Matrix (Corning Inc., New York, NY, USA) using 96-well Angiogenesis μ-plates (ibidi GmbH, Munich, Germany) as described before.[38] “Sandwich” assays in short: bottom wells of cooled Angiogenesis plates were filled with 10 μL 4 mg/mL Matrigel, centrifuged for 20 min 200 g and incubated at 37°C temperature for approximately 30–60 min or until the ECM had polymerized. 1,000–1,500 cells were mixed in 2 mg/mL ECM-medium, and 20 μL of cell suspension was added in each well. The plates were centrifuged for 10 min at 100 g, or until the cells had settled on top of the lower ECM. Finally, the outer wells and side reservoirs were filled with water for humidification, and the culture plates placed into the incubator for 3–4 h or overnight. The following day, 60 μL of cell culture medium were added; refreshed every third day by carefully aspirating the medium. This “sandwich” setting allows almost unifocal alignment of cells and 3D structures in a single optical plane, thus reducing the time required for confocal stack imaging.
All control compounds were purchased from Selleck (Munich, Germany), except for staurosporine (Sigma-Aldrich, St. Louis, MO, USA) and Y-27632 (Tocris, Bristol, UK) and dissolved in dimethyl sulfoxide (DMSO) as a vehicle at 10 mM. In the primary and secondary 3D screens, experimental and control compound exposures were performed in triplicates. Four concentrations for each compound were applied (0.03, 0.1, 0.3 and 1 μM). Compound treatments were initiated four days after cell embedding, and continued for six days after which spheroids were stained and imaged.
Supplementary file pone.0126111.s004.eps: S4 Fig Secondary screens. Dendrograms for A) LNCaP, B) LAPC-4, and C) Ep156T betulin screens in 3D culture have been constructed using three main read-outs: spheroid size, spheroid complexity, and cell death. […] (EPS) Click here for additional data file.

PC3 cells = assay: Cell morphology and actin cytoskeleton in 2D monolayer culture; conditions: PC3, 2D, 72h
Description: As a control, we also tested morphologies treated with the same panel of anti-invasive compounds 4, 5, 6, 16 and 20 as well as betulin (1) on PC3 cells grown in 2D monolayer cultures (S9 Fig).
Supplementary file pone.0126111.s009.tif: S9 Fig Morphologies of PC-3, LNCaP and Ep156T cells in 2D monolayer culture, exposed 72h to selected betulin derivatives. Actin cytoskeleton (filamentous or F- actin) is stained green (LifeAct), nuclei with a red dye (confocal microscope images, 40× objective, scale bar shown for each panel on the right lower corner). (TIF) Click here for additional data file.

PC-3 cells = assay: Primary 3D screen in Matrigel ECM, morphometric image analysis (AMIDA) of invasion, growth and cell death; conditions: PC-3 in 3D Matrigel; for anti-invasive effects in 3D culture (in words): 0.03-1 μM
Description: Three standard of care compounds widely used against PrCa were added as controls; namely, the androgen receptor antagonist enzalutamide (MDV3100), the C17α-hydroxylase/C17,20-lyase inhibitor abiraterone (Zytiga), and the classic mitotic inhibitor paclitaxel. Treatments started at day 4, when well-differentiated round acini were established.
The live 3D cell cultures were then stained with reactive dyes Calcein AM to detect living, and ethidium homodimer to detect dead cells. Images (Fig 4A) were acquired with confocal microscope and image data were analyzed with the AMIDA software. The principles of morphometric image analysis are briefly outlined in S2 Fig.
Fig 4 Primary 3D screen. PC-3 cells were cultured in 3D Matrigel ECM for 4 days and treated for 6 days with 25 betulin derivatives (from 2D high throughput screens), DMSO/vehicle control, and three reference compounds. A) Representative maximum intensity projections of confocal microscope stack images for selected compound treatments at 300 nM concentration (5× objective, scale 100 μm). B) Three graphs showing the relative impact on three morphometric parameters for 7 betulin derivatives, DMSO control, and one control compound (paclitaxel). […] C) Hierarchical clustering was done using three morphological parameters derived from PC3 organoids: spheroid size (area), complexity and the number of dead cells. D) Wound healing curves of the two betulin derivatives 4 and 20, highlighting the 50% cut-off level (orange dashed line).
Next, statistical analyses were performed to interpret the complex image data (Fig 4B and 4C). For simplicity, we focused on only three, basic morphologic parameters from the multiparametric AMIDA readout (Fig 4B): 1) Area (indicating growth of organoids), 2) structural Complexity (as a measure of the intensity of invasion), and 3) Relative Area of dead cells within organoids (red signal as a measure of cytoxicity or apoptosis). Area (Size of organoids; Fig 4B, upper panel) was measured as the number of pixels within a segmented structure. […] Shape Complexity (Fig 4B, middle panel) was obtained using the structure size (area) and perimeter (number of border pixels). The more regular the shape of an organoid, the closer it is to a perfect circle, thus minimizing the perimeter relative to object size. […] Deviations from this average (residuals) were interpreted as a measure for the shape complexity of organoids. As a logical lower limit for this measure (represented by a perfect circle), we adjusted the intercept (height level) of the regression line to render all returned residuals as positive numbers.
All 3D cultures were done in growth factor-free Matrigel Basement-membrane Matrix (Corning Inc., New York, NY, USA) using 96-well Angiogenesis μ-plates (ibidi GmbH, Munich, Germany) as described before.[38] “Sandwich” assays in short: bottom wells of cooled Angiogenesis plates were filled with 10 μL 4 mg/mL Matrigel, centrifuged for 20 min 200 g and incubated at 37°C temperature for approximately 30–60 min or until the ECM had polymerized. 1,000–1,500 cells were mixed in 2 mg/mL ECM-medium, and 20 μL of cell suspension was added in each well. The plates were centrifuged for 10 min at 100 g, or until the cells had settled on top of the lower ECM. Finally, the outer wells and side reservoirs were filled with water for humidification, and the culture plates placed into the incubator for 3–4 h or overnight. The following day, 60 μL of cell culture medium were added; refreshed every third day by carefully aspirating the medium.

Compound | anti-invasive effects in 3D culture (in words) (PC-3 cells; 6 days treatment) | also measured
C=C(C)[C@@H]1CC[C@]2(C(=O)N3CCCCC3)CC[C@]3(C)C(CCC4[C@@]5(C)CC[C@H](O)C(C)(C)C5CC[C@]43C)C12 (stereo partly drawn) [Compound 21] |  | activity in validation (wound healing) in words (PC-3): inactive
C=C(C)[C@@H]1CC[C@]2(C(N)=O)CC[C@]3(C)C(CCC4[C@@]5(C)Cc6nccnc6C(C)(C)C5CC[C@]43C)C12 (stereo partly drawn) [Compound 16] | same high level of anti-invasive effects as compound 15 | efficacy in 3D LAPC-4 culture (dendrogram clusters) (LAPC-4): most active; morphology and actin cytoskeleton of cells in 2D monolayer (PC3 cells): No morphologies and visible effects on the actin cytoskeleton; concentration at which anti-invasive effects are seen in 3D (PC-3 cells; 6 days treatment): 100 nM
C=C(C)[C@@H]1CC[C@]2(C(N)=O)CC[C@]3(C)C(CCC4[C@@]5(C)Cc6cnoc6C(C)(C)C5CC[C@]43C)C12 (stereo partly drawn) [Compound 9] | negligible effects on the invasive phenotype | 
C=C(C)[C@@H]1CC[C@]2(C(=O)O)CC[C@]3(C)[C@H](CC[C@@H]4[C@@]5(C)CC[C@H](O)C(C)(C)[C@@H]5CC[C@]43C)[C@@H]12 [Compound 1, betulinic acid] | did not show significant anti-invasive effects | morphology and actin cytoskeleton of cells in 2D monolayer (PC3 cells): No morphologies and visible effects on the actin cytoskeleton
C=C(C)[C@@H]1CC[C@]2(C=O)CC[C@]3(C)C(CCC4[C@@]5(C)Cc6cnoc6C(C)(C)C5CC[C@]43C)C12 (stereo partly drawn) [Compound 7] | negligible effects on the invasive phenotype | 
C=C(C)[C@@H]1CC[C@]2(C(=O)NCCC)CC[C@]3(C)C(CCC4[C@@]5(C)CCC(=O)C(C)(C)C5CC[C@]43C)C12 (stereo partly drawn) [Compound 12] | None of these compounds showed significant anti-invasive effects | 
C[C@]12CC[C@H](O)CC1=CC[C@@H]1[C@@H]2CC[C@]2(C)C(c3cccnc3)=CC[C@@H]12 [abiraterone, reference compound] |  | efficacy in 3D LAPC-4 culture (dendrogram clusters) (LAPC-4): efficacy of all positive controls; effect on morphometric measures (area, complexity, dead cells) (PC-3 cells; paclitaxel at 30 and 100 nM): no noticeable effect
C=C(C)[C@@H]1CC[C@]2(COC(C)=O)CC[C@]3(C)C(CCC4[C@@]5(C)Cc6cnoc6C(C)(C)C5CC[C@]43C)C12 (stereo partly drawn) [Compound 8] | negligible effects on the invasive phenotype | 
C=C(C)[C@@H]1CC[C@]2(CO)CC[C@]3(C)C(CCC4[C@@]5(C)Cc6cnoc6C(C)(C)C5CC[C@]43C)C12 (stereo partly drawn) [Compound 10] | negligible effects on the invasive phenotype | 
C[C@@H](N)[C@H]1CC[C@H](C(=O)Nc2ccncc2)CC1 [Compound Y-27632, reference compound] |  | morphology and actin cytoskeleton of cells in 2D monolayer (PC3 cells): elongation
C=C(C)[C@@H]1CC[C@]2(C#N)CC[C@]3(C)C(CCC4[C@@]5(C)Cc6nccnc6C(C)(C)C5CC[C@]43C)C12 (stereo partly drawn) [Compound 18, Lupa-2,20(29)-dieno[2,3-b]pyrazino-28-nitrile] | inactive | 
C=C(C)[C@@H]1CC[C@]2(C(=O)N3CCCCC3)CC[C@]3(C)C(CCC4[C@@]5(C)CCC(=O)C(C)(C)C5CC[C@]43C)C12 (stereo partly drawn) [Compound 13] | None of these compounds showed significant anti-invasive effects | 
C=C(C)[C@@H]1CC[C@]2(C(=O)N3CCCC3)CC[C@]3(C)C(CCC4[C@@]5(C)CCC(=O)C(C)(C)C5CC[C@]43C)C12 (stereo partly drawn) [Compound 11] | None of these compounds showed significant anti-invasive effects | 
C=C(C)[C@@H]1CC[C@]2(C(=O)N3CCOCC3)CC[C@]3(C)C(CCC4[C@@]5(C)CCC(=O)C(C)(C)C5CC[C@]43C)C12 (stereo partly drawn) [Compound 14] | None of these compounds showed significant anti-invasive effects | 
C=C(C)[C@@H]1CC[C@]2(C(=O)N3CCCCC3)CC[C@]3(C)C(CCC4[C@@]5(C)Cc6nccnc6C(C)(C)C5CC[C@]43C)C12 (stereo partly drawn) [Compound 17] | inactive | 
Oc1ccc2ccccc2c1SSc1c(O)ccc2ccccc12 [IPA3, reference compound] |  | morphology and actin cytoskeleton of cells in 2D monolayer (PC3 cells): clear rounding

Reference: publication PMC4428838, “Optimization of Invasion-Specific Effects of Betulin Derivatives on Prostate Cancer Cells through Lead Development” (PLoS ONE, 2015)
